The IC50 is the concentration needed to halve the response being measured.

This experiment concerns the target α-Glucosidase (EC 3.2.1.20). As to conditions: read-out: IC50 values ± SEM against α-glucosidase enzyme; pH 6.9, 37° C., 0.5 μM p-nitrophenyl α-D-glucopyranoside substrate, 250 units/mL enzyme, 50 mM sodium phosphate buffer with 100 mM NaCl.

Source text: The increments in absorption at 400 nm due to the hydrolysis of PNP-G by α-glucosidase were monitored continuously with a molecular devices spectrophotometer.

With `CC(C)(O)[C@H]1CC[C@]2(C)[C@H]3CC[C@@H]4[C@@]5(C)CCCC(C)(C)[C@@H]5[C@@H](O)C[C@@]4(C)[C@]3(C)CC[C@@H]12` [Zeorin, 6,22-Hopanediol], the IC50 amounted to 100 ± 0.3 µM.
